What was measured:
Histone deacetylase 1 = Histone deacetylase 1 (Homo sapiens, UniProt Q13547); experiment: Inhibition of recombinant full length human C-terminal His/FLAG tagged HDAC1 expressed in baculovirus infected Sf9 insect cells using ZMAL as substrate measured after 90 mins by fluorescence assay
Plasmodium berghei = experiment: Antiplasmodial activity against exo-erythrocytic stage of GFP-Luc-fused Plasmodium berghei ANKA infected in human HepG2 cells after 48 hrs by bioluminescence assay; settings: HepG2, 48 h
NFF [1] = experiment: cells; settings: Homo sapiens
Description: Cytotoxicity against human NFF cells

Plasmodium falciparum [2] = experiment: Gametocytocidal activity against transgenic GFP-fused Plasmodium falciparum NF54 early stage gametocytes after 72 hrs by Mitotracker Red CMH2XRos staining based imaging method; assay type: functional, organism-based; settings: NF54, 72 h
Plasmodium falciparum [3] = experiment: Gametocytocidal activity against transgenic GFP-fused Plasmodium falciparum NF54 late stage gametocytes after 72 hrs by Mitotracker Red CMH2XRos staining based imaging method; assay type: functional, organism-based; settings: NF54, 72 h
Plasmodium falciparum [4] = experiment: microbe, parasite or virus in culture; settings: Dd2, 3 h
Description: Antiplasmodial activity against multidrug-resistant asexual ring stage Plasmodium falciparum Dd2 infected in human erythrocytes by [3H]-hypoxanthine incorporation assay

Plasmodium falciparum [5] = experiment: Gametocytocidal activity against synchronized Plasmodium falciparum NF54 mature stage 5 gametocytes after 48 hrs by ATP bioluminescence assay; assay type: functional, organism-based; settings: NF54, 48 h
[6] = Cytotoxicity against human HepG2A16 cells expressing GFP-fused CD81 after 48 hrs by bioluminescence assay; settings: HepG2A16, 48 h
[7] = molecular target: T1, Protein deacetylase HDAC6 (Homo sapiens, UniProt Q9UBN7); experiment: Inhibition of recombinant full length human N-terminal GST-tagged HDAC6 expressed in baculovirus infected Sf9 insect cells using ZMAL as substrate measured after 90 mins by fluorescence assay
T1 sequence (Q9UBN7 whole entry): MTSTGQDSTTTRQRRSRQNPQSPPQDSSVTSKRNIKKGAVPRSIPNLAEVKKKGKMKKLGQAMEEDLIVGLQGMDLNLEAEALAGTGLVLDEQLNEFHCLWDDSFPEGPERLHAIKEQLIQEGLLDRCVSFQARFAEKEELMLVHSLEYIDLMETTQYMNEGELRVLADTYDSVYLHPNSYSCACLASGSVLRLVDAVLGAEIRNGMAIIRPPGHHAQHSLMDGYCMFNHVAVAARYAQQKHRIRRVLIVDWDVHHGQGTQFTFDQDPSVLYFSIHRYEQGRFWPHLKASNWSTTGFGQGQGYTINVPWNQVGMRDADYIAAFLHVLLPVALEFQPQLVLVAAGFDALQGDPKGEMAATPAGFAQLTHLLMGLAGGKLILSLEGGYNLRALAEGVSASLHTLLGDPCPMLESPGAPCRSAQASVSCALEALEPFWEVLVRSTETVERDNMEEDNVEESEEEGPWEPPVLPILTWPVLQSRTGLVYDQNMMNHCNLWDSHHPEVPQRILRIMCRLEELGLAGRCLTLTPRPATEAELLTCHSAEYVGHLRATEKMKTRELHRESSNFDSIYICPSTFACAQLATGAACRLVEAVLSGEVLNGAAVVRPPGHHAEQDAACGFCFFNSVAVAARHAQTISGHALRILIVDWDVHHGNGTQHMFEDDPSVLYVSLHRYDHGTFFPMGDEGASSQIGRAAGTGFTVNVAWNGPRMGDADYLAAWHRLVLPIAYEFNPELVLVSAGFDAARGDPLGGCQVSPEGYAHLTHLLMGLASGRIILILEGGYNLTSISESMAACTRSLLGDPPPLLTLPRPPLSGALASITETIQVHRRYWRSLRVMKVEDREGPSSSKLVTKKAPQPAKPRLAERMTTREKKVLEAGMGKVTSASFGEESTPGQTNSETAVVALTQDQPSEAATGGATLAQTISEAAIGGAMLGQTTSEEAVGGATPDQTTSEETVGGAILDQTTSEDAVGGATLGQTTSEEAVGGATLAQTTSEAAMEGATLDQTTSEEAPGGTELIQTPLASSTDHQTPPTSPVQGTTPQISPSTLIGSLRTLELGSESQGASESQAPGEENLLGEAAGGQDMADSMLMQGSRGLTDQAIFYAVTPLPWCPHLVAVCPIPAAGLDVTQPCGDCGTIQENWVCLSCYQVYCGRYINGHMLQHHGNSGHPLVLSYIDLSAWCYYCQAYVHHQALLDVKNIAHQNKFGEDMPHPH

Plasmodium falciparum [8] = experiment: Gametocytocidal activity against transgenic GFP-fused Plasmodium falciparum NF54 late stage gametocytes at 40 uM after 72 hrs by Mitotracker Red CMH2XRos staining based imaging method relative to control; assay type: functional
Plasmodium falciparum [9] = experiment: microbe, parasite or virus in culture; settings: 3D7, 3 h
Description: Antiplasmodial activity against drug-sensitive asexual ring stage Plasmodium falciparum 3D7 infected in human erythrocytes by [3H]-hypoxanthine incorporation assay

in vitro [10] = settings: human
Description: Selectivity index, ratio of IC50 for human NFF cells to IC50 for multidrug-resistant asexual ring stage Plasmodium falciparum Dd2 infected in human erythrocytes

in vitro [11] = settings: human; remark: listed apart in the source
Description: Selectivity index, ratio of IC50 for human NFF cells to IC50 for drug-sensitive asexual ring stage Plasmodium falciparum 3D7 infected in human erythrocytes

[12] = Selectivity index, ratio of IC50 for human HepG2A16 cells to IC50 for exo-erythrocytic stage of GFP-Luc-fused Plasmodium berghei ANKA infected in human HepG2 cells
Plasmodium falciparum [13] = assay type: functional, organism-based; settings: 3D7
HEK293 = experiment: Cytotoxicity against HEK293 cells after 48 hrs by resazurin dye based assay; assay type: ADME, cell-based; settings: Homo sapiens, HEK293, 48 h
NFF [14] = assay type: ADME, cell-based; settings: Homo sapiens, 72 h
Plasmodium falciparum [15] = assay type: functional, organism-based; settings: Dd2
Plasmodium falciparum [16] = experiment: Antiplasmodial activity against Plasmodium falciparum

Histone deacetylase 1, sequence (Q13547 whole entry, the tested form may be a part): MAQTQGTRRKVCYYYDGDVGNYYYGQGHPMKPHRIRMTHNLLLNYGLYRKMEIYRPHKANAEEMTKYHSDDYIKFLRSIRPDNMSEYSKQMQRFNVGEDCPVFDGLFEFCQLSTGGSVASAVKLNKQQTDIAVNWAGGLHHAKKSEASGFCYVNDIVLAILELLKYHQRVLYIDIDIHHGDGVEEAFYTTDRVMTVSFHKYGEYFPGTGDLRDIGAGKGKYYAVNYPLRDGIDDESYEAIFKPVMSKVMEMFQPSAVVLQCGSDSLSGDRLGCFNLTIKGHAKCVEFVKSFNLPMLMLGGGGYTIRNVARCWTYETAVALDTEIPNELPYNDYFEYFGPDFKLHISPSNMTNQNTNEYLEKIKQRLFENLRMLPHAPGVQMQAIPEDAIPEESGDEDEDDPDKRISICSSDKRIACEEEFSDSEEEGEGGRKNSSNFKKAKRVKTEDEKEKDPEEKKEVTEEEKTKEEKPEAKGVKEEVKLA

Cc1ccc(NC(=O)CN(Cc2ccc(C(=O)NO)cc2)C(=O)c2ccc(N(C)C)cc2)cc1
IC50 (Histone deacetylase 1): 80 nM

Cc1ccc(NC(=O)CN(Cc2ccc(C(=O)NO)cc2)C(=O)c2cc(C)cc(C)c2)cc1
IC50 (Plasmodium berghei): 5550 nM | IC50 (NFF [1]): > 10000 nM | IC50 (Plasmodium falciparum [2]): 7600 nM | IC50 (Plasmodium falciparum [3]): 7280 nM | IC50 (Plasmodium falciparum [4]): 27 nM | IC50 (Plasmodium falciparum [5]): 10100 nM | IC50 [6]: 21400 nM

CCCCNC(=O)CN(Cc1ccc(C(=O)NO)cc1)C(=O)c1ccc(N(C)C)cc1
IC50 [7]: 35 nM | IC50 (Histone deacetylase 1): 40 nM

O=C(CN(Cc1ccc(C(=O)NO)cc1)C(=O)c1cccc2ccccc12)NC1CCCCC1
IC50 (Histone deacetylase 1): 552 nM

Cc1ccc(C(=O)N(CC(=O)NC2CCCCC2)Cc2ccc(C(=O)NO)cc2)cc1C
IC50 (Histone deacetylase 1): 304 nM

Cc1ccc(C(=O)N(CC(=O)NC(C)(C)C)Cc2ccc(C(=O)NO)cc2)cc1C
IC50 [7]: 57 nM | IC50 (Histone deacetylase 1): 428 nM | Activity (Plasmodium falciparum [8]): 92%

Cc1ccc(NC(=O)CN(Cc2ccc(C(=O)NO)cc2)C(=O)c2cccc3ccccc23)cc1
IC50 (Plasmodium falciparum [9]): 39 nM | IC50 (NFF [1]): > 10000 nM | IC50 (Plasmodium falciparum [4]): 33 nM | selectivity ratio (in vitro [10]): 256 to 303 | selectivity ratio (in vitro [11]): 256 to 303

CC(C)c1ccc(C(=O)N(CC(=O)NC2CCCCC2)Cc2ccc(C(=O)NO)cc2)cc1
IC50 [7]: 64 nM | IC50 (Histone deacetylase 1): 86 nM

O=C1C(O)=C([C@H]2CC[C@H](c3ccc(Cl)cc3)CC2)C(=O)c2ccccc21 [ATOVAQUONE]
IC50 (Plasmodium berghei): 0.014 nM | selectivity ratio [12]: > 35000 | IC50 [6]: > 500 nM

O=C(/C=C/c1cccc(S(=O)(=O)Nc2ccccc2)c1)NO [BELINOSTAT]
IC50 (Plasmodium falciparum [13]): 60 to 130 nM | IC50 (HEK293): 1420 to 2370 nM | IC50 (NFF [14]): 1420 to 2370 nM | IC50 (Plasmodium falciparum [15]): 60 to 130 nM

CC[C@H](C)[C@H](NC(=O)[C@H]([C@@H](C)CC)N(C)C(C)=O)C(=O)N[C@H](C(=O)N[C@@H](CC(C)C)C(=O)[C@@]1(C)CO1)[C@@H](C)O [EPOXOMYCIN]
IC50 (Plasmodium falciparum [5]): 7 nM

CN(C)c1ccc2nc3ccc(N(C)C)cc3[s+]c2c1 [METHYLENE BLUE ANHYDROUS]
IC50 (Plasmodium falciparum [5]): 480 nM

Cc1[nH]c2ccccc2c1CCNCc1ccc(/C=C/C(=O)NO)cc1 [PANOBINOSTAT]
IC50 (Plasmodium falciparum [13]): 10 to 30 nM | IC50 (HEK293): 70 to 180 nM | IC50 (NFF [14]): 70 to 180 nM | IC50 (Plasmodium falciparum [15]): 10 to 30 nM

COc1ccc2nc3cc(Cl)ccc3c(Nc3cc(CN4CCCC4)c(O)c(CN4CCCC4)c3)c2n1 [PYRONARIDINE]
IC50 (Plasmodium falciparum [2]): 29 nM | IC50 (Plasmodium falciparum [3]): 1710 nM

CC(/C=C/C(=O)NO)=C\[C@@H](C)C(=O)c1ccc(N(C)C)cc1 [TRICHOSTATIN]
IC50 (Plasmodium falciparum [16]): 8 to 11 nM

Source: ChEMBL document CHEMBL4265952, “One-pot, multi-component synthesis and structure-activity relationships of peptoid-based histone deacetylase (HDAC) inhibitors targeting malaria parasites” (Eur J Med Chem, 2018)
